Assay results as given in ChEMBL document CHEMBL4483862, “Open-source discovery of chemical leads for next-generation chemoprotective antimalarials” (2018).

Tested on: Plasmodium berghei
Experiment: Luciferase/luciferin-expressing antifolate-resistant parasites were used to infect a culture of HepG2 cells that were pre-incubated with compounds. Infected hepatocytes emit light due to the luciferase reaction. Assay results are presented as the percent inhibition of light emission compared to control. […]
Assay type: functional
Details: sporozoite; for IC90: read-out: LUCIFERASE INFECTION ASSAY - IC90
[1] = read-out: LUCIFERASE INFECTION ASSAY - IC50

| Compound | IC90 [µM] | IC50 [1] [µM] | further results |
| --- | --- | --- | --- |
| O=C(Nc1nonc1-c1ccc(F)cc1)c1sc2ccccc2c1Cl | 7.47 | – | IC50 (HEPG2TOX_HILL_SLOPE 12, HEPG2TOX_R_SQUARED 0.71, PBLUC_HILL_SLOPE 5.14, PBLUC_R_SQUARED 0.171, read-out: LUCIFERASE INFECTION ASSAY - IC50): 4.87 µM |
| COc1cc(-c2cnc(N)c(-c3ccc(F)c(Cl)c3)c2)ccc1O | > 9.57 | – | IC50 (PBLUC_HILL_SLOPE 10.3, PBLUC_R_SQUARED 0.243, read-out: LUCIFERASE INFECTION ASSAY - IC50): 8.4 µM |
| CC(C)(C)c1ccc(C(=O)NNC(=O)c2ccc(CSc3ccc(C(F)(F)F)cn3)o2)cc1 | > 6.91 | > 6.91 | – |
| C=C(C)[C@@H]1CC=C(CN2CCC3(CC2)C(=O)N(Cc2cccnc2)C(=O)N3CCc2ccccc2)CC1 | > 6.62 | – | IC50 (HEPG2TOX_HILL_SLOPE 8.2, HEPG2TOX_R_SQUARED 0.91, PBLUC_HILL_SLOPE 3.93, PBLUC_R_SQUARED 0.652, read-out: LUCIFERASE INFECTION ASSAY - IC50): 3.82 µM |
| COc1ccc(-c2csc3ncnc(Sc4nnc(-c5cccc(C)c5)n4CC(N)=O)c23)cc1 | 2.23 | – | IC50 (HEPG2TOX_HILL_SLOPE 1.67, 2.83, HEPG2TOX_R_SQUARED 0.956, 0.971, PBLUC_HILL_SLOPE 8.88, 0.995, PBLUC_R_SQUARED 0.771, 0.637, read-out: LUCIFERASE INFECTION ASSAY - IC50): 0.702 µM |
| CNc1cc(CSCc2ccc(Cl)cc2)nc(-c2ccccc2)n1 | > 9.27 | > 9.27 | – |
| Fc1ccc(-c2cc3ncnc(NC4CC4)c3s2)cc1 | > 10 | > 10 | – |
| S=C(NCCc1ccc(Cl)cc1Cl)NC1CC2CCC1C2 (stereo not given) | > 10 | > 10 | – |
| COc1ccc(/C=N/OCC(=O)Nc2ccccc2C(F)(F)F)cc1 | > 10 | – | IC50 (PBLUC_HILL_SLOPE 0.525, PBLUC_R_SQUARED 0.458, read-out: LUCIFERASE INFECTION ASSAY - IC50): > 10 µM |
| Cc1cc(C)nc(N/N=C/c2c(C)nn(-c3ccccc3)c2Sc2nc3ccccc3s2)n1 | > 10 | > 10 | – |
| Cc1nnc(NC(=O)c2cn(-c3ccccc3)nc2-c2ccccc2C)o1 | 0.255 | – | IC50 (HEPG2TOX_HILL_SLOPE 0.258, HEPG2TOX_R_SQUARED 0.871, PBLUC_HILL_SLOPE 2.72, PBLUC_R_SQUARED 0.839, read-out: LUCIFERASE INFECTION ASSAY - IC50): 0.114 µM |
| COc1c(Cl)cc([N+](=O)[O-])c(OC)c1C(=O)NC(=O)Nc1cc(Cl)cc(Cl)c1 | > 7.36 | – | IC50 (FFLUC_HILL_SLOPE 1.87, FFLUC_R_SQUARED 0.625, PBLUC_HILL_SLOPE 21.1, PBLUC_R_SQUARED 0.112, read-out: LUCIFERASE INFECTION ASSAY - IC50): 6.88 µM |
| C/C(=N\NC(=N)N)c1ccc(C2CCCCC2)cc1 | > 10 | – | IC50 (HEPG2TOX_HILL_SLOPE 4.72, HEPG2TOX_R_SQUARED 0.94, read-out: LUCIFERASE INFECTION ASSAY - IC50): > 10 µM |
| CC(C)(C)c1ccccc1NC(=O)CCC(=O)N1CCC(c2ccccc2)=N1 | > 10 | > 10 | – |
| OCCCNc1nn2c(-c3cccc(Cl)c3)cnc2s1 | > 10.7 | – | IC50 (HEPG2TOX_HILL_SLOPE 8.79, HEPG2TOX_R_SQUARED 0.819, PBLUC_HILL_SLOPE 13.4, PBLUC_R_SQUARED 0.184, read-out: LUCIFERASE INFECTION ASSAY - IC50): 9.8 µM |
| Cc1nc(NCCNc2cnccn2)c2c(-c3cccs3)csc2n1 | 5.98 | – | IC50 (HEPG2TOX_HILL_SLOPE 0.714, HEPG2TOX_R_SQUARED 0.963, PBLUC_HILL_SLOPE 3.5, PBLUC_R_SQUARED 0.488, read-out: LUCIFERASE INFECTION ASSAY - IC50): 3.19 µM |
| Cc1ccc(-n2c(-c3ccc(F)cc3)nc3c2C(=O)c2ccccc2C3=O)cc1 | > 10 | – | IC50 (PBLUC_HILL_SLOPE 1.1, PBLUC_R_SQUARED 0.595, read-out: LUCIFERASE INFECTION ASSAY - IC50): 1.88 µM |

| Compound | IC90 [µM] | IC50 [1] [µM] | further results |
| --- | --- | --- | --- |
| CCCn1c(N)c(N2CCCCC2)c(=O)n(Cc2nc(N)nc(Nc3ccc(C)cc3)n2)c1=O | 4.61 | 3.72 | – |
| CSc1sc(C(=O)OC2CCCCC2)c2c1C(=O)CC(C)(C)C2 | > 9.36 | – | IC50 (FFLUC_HILL_SLOPE 35.3, FFLUC_R_SQUARED 0.0335, read-out: LUCIFERASE INFECTION ASSAY - IC50): > 9.36 µM |
| O=C1/C(=C\c2ccncc2)C(c2ccccc2)Oc2ccccc21 (stereo not given) | 9.96 | 9.06 | – |
| O=C(Nc1cccc(C(F)(F)F)c1)Nc1cnn(-c2ccc(Cl)cc2)c1C(F)(F)F | > 7.35 | – | IC50 (PBLUC_HILL_SLOPE 0.579, PBLUC_R_SQUARED 0.471, read-out: LUCIFERASE INFECTION ASSAY - IC50): 1.04 µM |
| NC(/C=C/c1cc(C(F)(F)F)cc(C(F)(F)F)c1)=N\O | > 11.1 | > 11.1 | – |
| Cc1cc(N2CCOCC2)ccc1NC(=O)CC1C=CCC1 (stereo not given) | > 10 | > 10 | – |
| O=C(Nc1ccccc1)Nc1cc(NC(=O)Nc2ccccc2)cc(C(F)(F)F)c1 | > 7.96 | – | IC50 (HEPG2TOX_HILL_SLOPE 2.43, HEPG2TOX_R_SQUARED 0.913, read-out: LUCIFERASE INFECTION ASSAY - IC50): > 7.96 µM |
| CCOc1cc(/C=C/C(=O)c2ccc(-c3ccccc3)cc2)ccc1OCC(=O)N(C)C | > 10 | – | IC50 (HEPG2TOX_HILL_SLOPE 0.976, HEPG2TOX_R_SQUARED 0.779, read-out: LUCIFERASE INFECTION ASSAY - IC50): > 10 µM |
| CC(C)[C@H](NS(=O)(=O)c1ccc2c(c1)OCCO2)C(=O)Nc1nc(-c2ccc(F)c(F)c2)cs1 | > 10 | – | IC50 (FFLUC_HILL_SLOPE 26.7, FFLUC_R_SQUARED 0.287, HEPG2TOX_HILL_SLOPE 3.72, HEPG2TOX_R_SQUARED 0.958, PBLUC_HILL_SLOPE 3.86, PBLUC_R_SQUARED 0.4, read-out: LUCIFERASE INFECTION ASSAY - IC50): 6.43 µM |
| CC1(C(=O)Nc2ccncc2)CCN1Cc1ccc2ccccc2c1 (stereo not given) | 7.13 | – | IC50 (HEPG2TOX_HILL_SLOPE 0.704, HEPG2TOX_R_SQUARED 0.958, PBLUC_HILL_SLOPE 1.6, PBLUC_R_SQUARED 0.488, read-out: LUCIFERASE INFECTION ASSAY - IC50): 1.8 µM |
| CC1CCCC(C)N1CCC(=O)NNC(=O)c1cc(-c2ccc(Cl)cc2)nc2ccccc12 (stereo not given) | > 10 | 7.66 | – |
| CN(C)Cc1ccc(C(=O)Nc2nc3ccccc3[nH]2)cc1 | 0.483 | – | – |
| Cc1ccc(Nc2ncccc2C(=O)Nc2nc3ccccc3[nH]2)c(C)c1 | 7.9 | – | IC50 (HEPG2TOX_HILL_SLOPE 7.67, HEPG2TOX_R_SQUARED 0.775, PBLUC_HILL_SLOPE 5.03, PBLUC_R_SQUARED 0.402, read-out: LUCIFERASE INFECTION ASSAY - IC50): 5.1 µM |
| C1CCN(Cc2nc(NC3CCN(C4CC4)CC3)c3c4c(sc3n2)CCCC4)CC1 | > 10 | > 10 | – |
| O=C(CN1CCN(C(=O)c2ccc(=O)n(Cc3ccccc3)n2)CC1)NC1CC1 | > 10 | > 10 | – |
| O=C(Nc1cccc(C(F)(F)F)c1)n1ncc(Sc2ccc(Cl)cc2)c1-c1ccc(Cl)cc1 | 4.72 | – | IC50 (HEPG2TOX_HILL_SLOPE 15.8, HEPG2TOX_R_SQUARED 0.635, PBLUC_HILL_SLOPE 5.24, PBLUC_R_SQUARED 0.621, read-out: LUCIFERASE INFECTION ASSAY - IC50): 3.11 µM |
